{"source": "patent US6261760A", "about": "“Regulation of the cell cycle by sterols” (priority 1999, dated 2001)", "key": {"[1]": {"system": "caveolin mRNA", "test": "Caveolin mRNA levels (Northern blot)"}, "[2]": {"system": "LDL FC uptake by fibroblast monolayers", "test": "Effects of metabolic inhibitors on uptake of 3H-cholesterol from LDL (Example 1)", "conditions": "in words"}, "[3]": {"system": "LDL FC uptake by fibroblast monolayers", "test": "Transfer of LDL-derived 3H-FC into fibroblast monolayers with metabolic inhibitors (Example 2)", "type": "cell-based, human", "parameters": "Emax: dose or concentration left out as unconfirmed", "conditions": "for inhibition at higher concentration: 100 mM (monensin: up to 100 mM); for effect on uptake of 3H-FC from LDL: brefeldin A, vinblastine, taxol, nocodazole, NEM 2 mM"}, "[4]": {"system": "intracellular FC transport to the cell surface in fibroblast monolayers", "test": "Transfer of intracellular 3H-FC to the cell surface (cholesterol oxidase)", "type": "cell-based, human", "conditions": "in words", "procedure": "This assay utilized the finding (see Example 1) that only FC in the caveolar fraction of the plasma membrane fraction was modified by cholesterol oxidase in unfixed fibroblast monolayers.\nThe rate at which intracellular LDL-derived ^3 H-FC became accessible at the cell surface was measured as follows. Cell monolayers were labeled with ^3 H-FC LDL under the conditions shown for each experiment. Unbound and adsorbed LDL were removed as described above. In some experiments metabolic inhibitors of different transport steps were then added for 30 min at 15° C. […] Cholesterol oxidase (Boehringer-Manheim, Indianapolis, Ind., USA) was added in PBS to a final concentration of 1 U ml^-1. Incubation was for 4 h at 0° C. The cells were washed with ice-cold PBS, and extracted with 0.1 N NAOH. Cell total lipid was extracted with chloroform-methanol (1:1 v/v). […] .\nFibroblast monolayers were prelabeled with FC-labeled LDL for 2 min at 31° C. Medium and surface-bound labeled LDL were removed as described above. The cells were incubated with inhibitors of intracellular transport for 30 min at 15° C. Movement of FC label to the cell surface remained negligible (FIG. 11). The cells were brought to 31° C. for 15 min, and then cooled on wet ice. ^3 H-FC transfer to the cell surface (in the presence and absence of inhibitor) was assayed with cholesterol oxidase as described above."}}, "note": "“Also recorded” adds a separate entry of the source. *1 amine or outer side, *2 acyl side, *3 side chain or, on linkers, in order; H or OH if unused. Where a SMILES comes first, the peptide text is derived from it. Bridges are numbered along the chain shown (N, C = ends). Roman numbers before positions name the chains, in order. [ ]: non-standard residue; d: D form. Actinocin(9to1) = Cc1c2oc3c(C)ccc(C(=O)[*:1])c3nc-2c(C(=O)[*:2])c(N)c1=O; NMeV = CN[C@H](C(=O)O)C(C)C; Nle = CCCC[C@H](N)C(=O)O; Sar = CNCC(=O)O"}
{"compound": "CCCC[C@@H](C=O)NC(=O)[C@H](CC(C)C)NC(=O)[C@H](CC(C)C)NC(C)=O", "note": "[ALLN] (Ac-Leu-Leu-[Nle]-aldehyde)", "values": [{"measurement": "effect on caveolin mRNA levels / caveolin gene expression", "setting": "[1]; 25 μM ALLN, 7% or 80% v/v plasma", "result": "superinhibited caveolin mRNA levels regardless of LDL-FC; also recorded: superinhibited the expression of the caveolin gene; also recorded: strongly inhibited caveolin mRNA levels even below the level expressed in cells equilibrated in 7% v/v plasma; also recorded: completely prevented the activation of caveolin mRNA levels observed in 80% v/v plasma"}]}
{"compound": "[N-]=[N+]=[N-].[Na+]", "note": "[Na-azide]", "values": [{"measurement": "effect on LDL FC uptake", "setting": "[2]", "result": "without effect"}]}
{"compound": "C=C1C(C)C2C(Cc3ccccc3)NC(=O)C23C(OC(C)=O)/C=C/C(C)(O)C(=O)C(C)CC=CC3C1O", "note": "(centres unmarked) [Cytochalasin D]", "values": [{"measurement": "inhibition at higher concentration", "setting": "[3]; listed as Cytochalasin", "result": "No greater inhibition"}, {"measurement": "inhibition at higher concentration", "setting": "[3]; listed as cytochalasin D", "result": "no increase in inhibition"}, {"measurement": "effect on transport of intracellular 3H-FC to the cell surface", "setting": "[4]", "result": "no effect"}]}
{"compound": "COC(=O)Nc1nc2ccc(C(=O)c3cccs3)cc2[nH]1", "note": "[Nocodazole]", "values": [{"measurement": "effect on uptake of 3H-FC from LDL", "setting": "[3]", "result": "without effect"}, {"measurement": "effect on transport of intracellular 3H-FC to the cell surface", "setting": "[4]", "result": "reduced"}]}
{"compound": "Cc1c2oc3c(C)ccc(C(=O)N[C@@H]4C(=O)N[C@H](C(C)C)C(=O)N5CCC[C@H]5C(=O)N(C)CC(=O)N(C)[C@@H](C(C)C)C(=O)O[C@@H]4C)c3nc-2c(C(=O)N[C@@H]2C(=O)N[C@H](C(C)C)C(=O)N3CCC[C@H]3C(=O)N(C)CC(=O)N(C)[C@@H](C(C)C)C(=O)O[C@@H]2C)c(N)c1=O", "note": "[actinomycin, actinomycin D] (I: T[dV]P[Sar][NMeV] / II: T[dV]P[Sar][NMeV]; ester I:1-I:C, II:1-II:C; linker I:N-II:N via Actinocin(9to1))", "values": [{"measurement": "t1/2 of decrease in caveolin mRNA levels", "setting": "[1]; actinomycin 2.5 μg ml^-1, activated and baseline cells, n=4", "result": "8.0 ± 1", "unit": "h"}, {"measurement": "caveolin mRNA level relative to total RNA", "setting": "[1]; baseline cells, 8 h with actinomycin, 37° C.", "result": 0.52}]}
{"compound": "CCN(CC)CCCC(C)Nc1ccnc2cc(Cl)ccc12", "note": "(centres unmarked) [Chloroquine]", "values": [{"measurement": "effect on LDL FC uptake", "setting": "[2]", "result": "no effect"}]}
{"compound": "CC[C@]1(O)C[C@@H]2CN(CCc3c([nH]c4ccccc34)[C@@](C(=O)OC)(c3cc4c(cc3OC)N(C)[C@H]3[C@@](O)(C(=O)OC)[C@H](OC(C)=O)[C@]5(CC)C=CCN6CC[C@]43[C@@H]65)C2)C1", "note": "[Vinblastine]", "values": [{"measurement": "effect on uptake of 3H-FC from LDL", "setting": "[3]", "result": "without effect"}, {"measurement": "effect on transport of intracellular 3H-FC to the cell surface", "setting": "[4]", "result": "unaffected"}]}
{"compound": "C[C@H]1CCC/C=C/[C@@H]2C[C@H](O)C[C@H]2[C@H](O)/C=C/C(=O)O1", "note": "[Brefeldin A]", "values": [{"measurement": "effect on uptake of 3H-FC from LDL", "setting": "[3]", "result": "without effect"}, {"measurement": "effect on transport of intracellular 3H-FC to the cell surface", "setting": "[4]", "result": "unaffected"}]}
{"compound": "CC(=O)O[C@H]1C(=O)[C@@]2(C)[C@H]([C@H](OC(=O)c3ccccc3)[C@]3(O)C[C@H](OC(=O)[C@H](O)[C@@H](NC(=O)c4ccccc4)c4ccccc4)C(C)=C1C3(C)C)[C@]1(OC(C)=O)CO[C@@H]1C[C@@H]2O", "note": "[taxol]", "values": [{"measurement": "effect on uptake of 3H-FC from LDL", "setting": "[3]", "result": "without effect"}]}
{"compound": "[NH4+].[O]=[V](=[O])[O-]", "note": "[NH4 -vanadate]", "values": [{"measurement": "effect on LDL FC uptake", "setting": "[2]", "result": "without effect"}]}
{"compound": "COC1=CC(C)=CC(C)C(O)C(C)CC(C)=CC=CC(OC)C(C(C)C(O)C(C)C2(O)CC(O)C(C)C(C(C)C)O2)OC1=O", "note": "(single isomer, unassigned) [Bafilomycin A1]", "values": [{"measurement": "Emax", "setting": "[3]; Homo sapiens, Fibroblast, read-out: maximal effect on LDL-FC uptake", "result": 30, "unit": "%"}]}
